We go through 20 compounds from patent US20220380370A1 (Goldfinch Bio, Inc., priority 2019, published 2022).

One assay has as its target T1, CB2 receptor (Homo sapiens, UniProt P34972).
T1 construct: host or cells: CB2-CHO cells, stably expressing
In words: CB2 cAMP antagonist assay (LANCE Ultra cAMP kit). Type of assay: cell-based. The settings on record: CB2-CHO cells stably expressing the CB2 receptor; forskolin and agonist CP55940 at EC90. The text has this: (§1) LANCE Ultra cAMP kit (Perkin Elmer) was used to quantitate the amount of 3′,5′-cyclic adenosine monophosphate (cAMP) produced in Flp-In CHO cells (Invitrogen) stably expressing the CB1 receptor, CB1-CHO cells (Perkin Elmer) stably expressing the CB1 receptor, or CB2-CHO cells (Perkin Elmer) stably expressing the CB2 receptor.
(§2) Forskolin was initially titrated to determine the response of the cells. The EC90 of forskolin was used for compound testing. CP55940 was titrated and used with EC90 of forskolin to determine the level of agonist stimulation. EC90 of the agonist was used for subsequent compound testing. For the CB1 assay, Forskolin (Sigma), CP55940 (Cayman Chemicals), and AM251 (MCE) were diluted in 100% DMSO, starting at 100 mM, 1 mM, and 1 mM respectively, in 3-fold serial dilutions. For the CB2 assay, Forskolin (Sigma), CP55940 (Cayman Chemicals), and AM630 (MCE) were diluted in 100% DMSO, starting at 100 mM, 1 mM, and 30 mM respectively, in 3-fold serial dilutions. Test compounds were diluted in 100% DMSO starting from 10 mM, 3-fold dilutions. The cAMP assay buffer contains 1× Hank's Buffered Saline Solution with Ca^2+ and Mg^2+ (Invitrogen), 5.3 mM HEPES (Invitrogen), 0.05% BSA, 0.5 mM IBMX (Sigma). For all assays, cells were harvested, counted, and diluted in cAMP assay buffer to 1×10^5 cells/mL. Only cells with viability >85% were used for the assay. Cells were seeded at 1000 cells/well in 384-well plates and 10 nL/well AM251 (for CB1), AM630 (for CB2) or test compound was added and incubated at 37° C. for 10 min. Then forskolin and agonist were added to reach their EC90 and incubated at 25° C. for 30 min. To detect the amount of cAMP produced, 5 μL of a 100× diluted stock of Eu-cAMP tracer and 5 μL of 200× diluted stock of Ulight-anti-cAMP were added to each well, and the plate incubated at 25° C. for 15 min. The FRET signal was read using an EnVision microplate reader (λex=320 nm, λem=615 nm and 665 nm). The results are expressed as % Inhibition, where % inhibition=100−100×(U−C2)/(C1−C2), where U is the FRET ratio (λem (665 nm)/λem (615 nm)) of sample, C1 is the average of the high controls (signal with no antagonist added), and C2 is the average of low controls (signal with the highest concentration of AM251 or AM630 antagonist). The IC50 is determined by fitting the percentage of inhibition as a function of compound concentrations with the Hill equation, using a 4-parameter fit in either XLfit or GraphPad Prism.

The next assay deals with T2, CB1 receptor (Homo sapiens, UniProt P21554).
T2 construct: Perkin Elmer (CB1-CHO cells); host or cells: Flp-In CHO cells or CB1-CHO cells, stably expressing
In words: CB1 cAMP antagonist assay (LANCE Ultra cAMP kit). Type of assay: cell-based. To be noted: CHO cells stably expressing the CB1 receptor; forskolin and agonist CP55940 at EC90.
Description: as §1, §2

pIC50: −log10 of the molar value.

T2 sequence (P21554 whole entry): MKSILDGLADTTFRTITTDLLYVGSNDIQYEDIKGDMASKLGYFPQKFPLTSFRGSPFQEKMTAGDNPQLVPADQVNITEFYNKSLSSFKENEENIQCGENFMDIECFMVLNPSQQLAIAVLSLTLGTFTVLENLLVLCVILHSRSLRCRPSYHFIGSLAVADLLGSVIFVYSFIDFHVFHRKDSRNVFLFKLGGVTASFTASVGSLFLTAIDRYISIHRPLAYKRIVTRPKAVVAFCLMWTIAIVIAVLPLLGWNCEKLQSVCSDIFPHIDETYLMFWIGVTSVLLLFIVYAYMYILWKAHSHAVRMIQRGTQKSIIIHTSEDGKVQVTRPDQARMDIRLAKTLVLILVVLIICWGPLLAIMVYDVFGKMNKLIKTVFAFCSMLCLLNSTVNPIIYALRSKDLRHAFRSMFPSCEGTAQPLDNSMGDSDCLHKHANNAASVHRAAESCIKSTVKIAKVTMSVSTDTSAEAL
T1 sequence (P34972 whole entry): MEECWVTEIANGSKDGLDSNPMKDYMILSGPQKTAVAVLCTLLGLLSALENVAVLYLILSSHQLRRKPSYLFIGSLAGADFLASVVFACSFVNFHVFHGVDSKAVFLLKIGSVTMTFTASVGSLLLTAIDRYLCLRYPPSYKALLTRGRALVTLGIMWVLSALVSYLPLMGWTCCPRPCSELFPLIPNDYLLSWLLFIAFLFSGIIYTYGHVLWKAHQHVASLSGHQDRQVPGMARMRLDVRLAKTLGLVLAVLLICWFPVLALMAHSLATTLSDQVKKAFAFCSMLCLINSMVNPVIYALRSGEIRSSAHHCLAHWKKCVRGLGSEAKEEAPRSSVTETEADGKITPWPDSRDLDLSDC

Turning to `O=c1c2c(nc(-c3ccccc3Cl)n2-c2ccc(Cl)cc2)n(C2CCCCC2)c(=O)n1CCCO` [Compound 105], the pIC50 on CB2 receptor is no more than 5.30; at CB1 receptor it was greater than 7.00.
In the same order, the values of `NC(=O)Cn1c(=O)c2c(nc(-c3ccccc3Cl)n2-c2ccc(Cl)cc2)n(CC2CCS(=O)(=O)CC2)c1=O` [Compound 136, 2-[8-(2-chlorophenyl)-7-(4-chlorophenyl)-3-[(1,1-dioxo-1λ^6-thian-4-yl)methyl]-2,6-dioxopurin-1-yl]acetamide] are no more than 5.30 and greater than 7.00.
In the same order, the values of `NC(=O)Cn1c(=O)c2c(nc(-c3ccccc3Cl)n2-c2ccc(Cl)cc2)n(CC2CCOCC2)c1=O` [Compound 125, 2-[8-(2-chlorophenyl)-7-(4-chlorophenyl)-3-(oxan-4-ylmethyl)-2,6-dioxopurin-1-yl]acetamide] are no more than 5.30 and greater than 7.00.
In the same order, the values of `O=c1c2c(nc(-c3ccccc3Cl)n2-c2ccc(Cl)cc2)n(C2CCCCC2)c(=O)n1CCO` [Compound 104, 8-(2-chlorophenyl)-7-(4-chlorophenyl)-3-cyclohexyl-1-(2-hydroxyethyl)-2,3,6,7-tetrahydro-1H-purine-2,6-dione] are no more than 5.30 and greater than 7.00.
As to `COCCn1c(=O)c2c(nc(-c3ccccc3Cl)n2-c2ccc(Cl)cc2)n(C2CCCCC2)c1=O` [Compound 101], the pIC50 is no more than 5.30 at CB2 receptor and greater than 7.00 at CB1 receptor.
In the same order, the values of `NC(=O)c1ccc(Cn2c(=O)n(C[C@@H](O)CO)c(=O)c3c2nc(-c2ccccc2Cl)n3-c2ccc(Cl)cc2)cc1` [Compound 132, 4-[[8-(2-chlorophenyl)-7-(4-chlorophenyl)-1-[(2R)-2,3-dihydroxypropyl]-2,6-dioxopurin-3-yl]methyl]benzamide] are no more than 5.30 and greater than 7.00.
In the same order, the values of `CS(=O)(=O)N1CCC(Cn2c(=O)n(CC(N)=O)c(=O)c3c2nc(-c2ncccc2Cl)n3-c2ccc(Cl)cc2)CC1` [Compound 170, 2-[7-(4-chlorophenyl)-8-(3-chloropyridin-2-yl)-3-[(1-methanesulfonylpiperidin-4-yl)methyl]-2,6-dioxopurin-1-yl]acetamide] are no more than 5.30 and greater than 7.00.
The corresponding values for `Cn1c(=O)c2c(nc(-c3ccccc3Cl)n2-c2ccc(Cl)cc2)n(Cc2ccc(C(=O)NC3CCOCC3)cn2)c1=O` [Compound 165] are no more than 5.30 and greater than 7.00.
`Cn1c(=O)c2c(nc(-c3ccccc3Cl)n2-c2ccc(Cl)cc2)n(Cc2ccc(S(N)(=O)=O)cc2)c1=O` [Compound 135, 4-[[8-(2-chlorophenyl)-7-(4-chlorophenyl)-1-methyl-2,6-dioxopurin-3-yl]methyl]benzenesulfonamide]: the values for the pIC50 at CB2 receptor and at CB1 receptor were no more than 5.30 and greater than 7.00, respectively.
In the same order, the values of `Cn1c(=O)c2c(nc(-c3ccccc3Cl)n2-c2ccc(Cl)cc2)n(Cc2ccc(C(N)=O)cc2)c1=O` [Compound 114] are no more than 5.30 and greater than 7.00.
For `C[C@H](c1ccc(C(=O)NCCO)cc1)n1c(=O)n(C)c(=O)c2c1nc(-c1ccccc1Cl)n2-c1ccc(Cl)cc1` [Compound 131], the values for the pIC50 on CB2 receptor and at CB1 receptor were no more than 5.30 and greater than 7.00, respectively.
In the same order, the values of `Cn1c(=O)c2c(nc(-c3ccccc3Cl)n2-c2ccc(Cl)cc2)n(Cc2ccc(S(N)(=O)=O)cn2)c1=O` [Compound 159, 6-[[8-(2-chlorophenyl)-7-(4-chlorophenyl)-1-methyl-2,6-dioxopurin-3-yl]methyl]pyridine-3-sulfonamide] are no more than 5.30 and greater than 7.00.
The corresponding values for `Cn1c(=O)c2c(nc(-c3ccccc3Cl)n2-c2ccc(Cl)cc2)n(C2CCCCC2)c1=O` [Compound 103] are no more than 5.30 and greater than 7.00.
The corresponding values for `Cn1c(=O)c2c(nc(-c3ccccc3Cl)n2-c2ccc(Cl)cc2)n(Cc2ccc(S(=O)(=O)NCCO)cn2)c1=O` [Compound 164, 6-[[8-(2-chlorophenyl)-7-(4-chlorophenyl)-1-methyl-2,6-dioxopurin-3-yl]methyl]-N-(2-hydroxyethyl)pyridine-3-sulfonamide] are no more than 5.30 and greater than 7.00.
Take `CC(c1ccc(C(N)=O)cc1)n1c(=O)n(C[C@@H](O)CO)c(=O)c2c1nc(-c1ccccc1Cl)n2-c1ccc(Cl)cc1` (stereo in doubt) [Compound 150, 4-[(1S)-1-[8-(2-chlorophenyl)-7-(4-chlorophenyl)-1-[(2R)-2,3-dihydroxypropyl]-2,6-dioxopurin-3-yl]ethyl]benzamide]: the pIC50 on CB2 receptor was no more than 5.30; at CB1 receptor it was greater than 7.00.
The corresponding values for `O=c1[nH]c(=O)n(C2CCCCC2)c2nc(-c3ccccc3Cl)n(-c3ccc(Cl)cc3)c12` [Compound 100] are no more than 5.30 and greater than 7.00.
Regarding `NC(=O)Cn1c(=O)c2c(nc(-c3ccccc3Cl)n2-c2ccc(Cl)cc2)n(C2CCCCC2)c1=O` [Compound 106], the pIC50 on CB2 receptor is no more than 5.30; on CB1 receptor, greater than 7.00.
On to `Cn1c(=O)c2c(nc(-c3ccccc3Cl)n2-c2ccc(Cl)cc2)n(Cc2ccc(C(=O)NCC3(O)CC3)cn2)c1=O` [Compound 162], for which the pIC50 at CB1 receptor is greater than 7.00.
Regarding `Cn1c(=O)c2c(nc(-c3ccccc3Cl)n2-c2ccc(Cl)cc2)n(Cc2ccc(C(=O)NCCO)cc2)c1=O` [Compound 112], the pIC50 on CB2 receptor is no more than 5.30; at CB1 receptor, greater than 7.00.
`NC(=O)Cn1c(=O)c2c(nc(-c3ccccc3Cl)n2-c2ccc(Cl)cc2)n(CC2CCN(CCO)CC2)c1=O` [Compound 117] had a pIC50 at CB1 receptor of no more than 5.30.
